These results are taken from ChEMBL document CHEMBL1136194, “Discovery and evaluation of 3-(5-thien-3-ylpyridin-3-yl)-1H-indoles as a novel class of KDR kinase inhibitors” (Bioorg Med Chem Lett, 2003).

Series [1] in a line: Solubility was determined. The format is physicochemical.
The nature of series [2]: Partition coefficient (logP). The series is classed as physicochemical. The settings on record: octanol/water.
Series [3] in a line: Pharmacokinetic property (Vdss) for the compound (5 mg/kg iv) was determined in rats. The settings on record: rat, in vivo, read-out: Vdss. The series is classed as ADME, organism-based.
Series [4] in a line: Oral bioavailability in rat (dose 20 mg/kg p.o.). The format is ADME, organism-based. The settings on record: in vivo.
Series [5] is described as follows: Pharmacokinetic property (Clearance) for the compound (5 mg/kg iv) was determined in rats. The format is ADME, organism-based. The settings on record: rat, in vivo.
Series [6] in a line: Pharmacokinetic property (t1/2) for the compound ([…] mg/kg iv) was determined in rats. The format is ADME, organism-based. The conditions noted are these: rat, in vivo, 5 mg/kg.
Series [7] can be described thus: Solubility at pH 7.4 was determined. The series is classed as physicochemical. The conditions noted are these: buffer.
Series [8] is described as follows: Solubility at pH 5.2 was determined. The series is classed as physicochemical. The conditions noted are these: buffer.

Structures are written as SMILES. ≈ marks a conversion by molar mass, not a printed value. Where only a bound is given, the exact number is not on record here.

As to `CC(=O)Nc1oc(-c2cc3ccccc3cc2O)nc1-c1ccccc1`, in series [1], the solubility (in general, how much of the substance goes into solution per volume) was < 5 µg/mL. Further, the logP (usually a log measure of how a compound divides between an organic and an aqueous phase) in series [2] is > 4.1.
With `c1ccc2c(c1)c(-c1cncc(-c3ccsc3)c1)cn2CCN1CCOCC1`, the Vd in series [3] was found to be 7.2 L/kg. Moreover, the bioavailability – broadly, dose-corrected exposure relative to a reference, in per cent – in series [4] was found to be 35%. Moreover, the clearance (commonly a measure of how efficiently the substance is removed, as volume per time) in series [5] was 65 mL/min/kg. In addition, the half-life (usually the time needed for the level to fall by half in the phase considered) in series [6] was 1.9 h. For the same molecule, the solubility in series [7] was determined as 5 µg/mL (≈ 12.8 µM); in series [8], 24 µg/mL (≈ 61.6 µM). Further, the logP in series [2] turned out to be 3.3.
As for `CN1CCN(CCCn2cc(-c3cncc(-c4ccsc4)c3)c3ccccc32)CC1`, the Vd in series [3] was 1.7 L/kg. In series [4], this molecule had a bioavailability of 33%. In series [5], this molecule registered a clearance of 13 mL/min/kg. Further, the half-life in series [6] is 1.8 h. Besides, the solubility in series [7] is > 205 µg/mL; in series [8] it was 18200 µg/mL (≈ 43600 µM). In series [2], this molecule gave a logP of 3.7.
With `c1ccc2c(c1)c(-c1cncc(-c3ccsc3)c1)cn2CCCN1CCCCC1`, in series [3], the Vd came to 1.8 L/kg. The bioavailability in series [4] was 28%. Moreover, in series [5], the clearance came out at 15 mL/min/kg. This molecule also had a half-life in series [6] of 1.6 h. Also, the solubility was < 5 µg/mL in series [7] and 177 µg/mL (≈ 441 µM) in series [8].
